Test results as given in patent US20200016145A1, “TREATMENT OF CHRONIC TRAUMATIC ENCEPHALOPATHY” (CTEC LLC, priority 2018, published 2020).
Entries after “also recorded” stand apart in the source; their conditions may differ.

Experiments:
ER stress = assay: ER stress, tau kinase and apoptosis markers after blast-induced TBI (western blot, immunohistochemistry, PCR); format: in vivo, Sprague Dawley rat
Procedure: An animal model was used to evaluate TBI, and neuropathological specimens (donated by the Brain Injury Research Institute brain bank) were used to evaluate CTE. TBI was blast induced in the animal model. […] Salubrinal was administered to the animal model following the injury. The ER stress was modulated by the use of salubrinal. […] This example assessed the successful targeting of ER stress after TBI. […] A Sprague Dawley rat was positioned in a protective tube to prevent injury to the peripheral organs, and an acceleration wave was generated and allowed to collide with the skull of the rat. The intensity of the injury was adjusted in a step-wise manner by decreasing or increasing the thickness of the membrane that exploded with pressurized nitrogen gas. An injury paradigm of 50 PSI was selected, which correlates with human concussion, that is the most common type of injury linked to CTE. In FIG. 4, the peak in plot D illustrates the 50 PSI pressure wave. The Sprague Dawley rats were given either one injury, or six injuries over a two-week period. Various time points of sacrifice were chosen to look at markers of ER stress and tauopathy. Salubrinal was administered to the rats after injury to target ER stress. Salubrinal was administered by IP injection 30 minutes after injury using a dose of 1 mg/kg. […] Salubrinal-mediated CHOP reduction may be associated with preservation of the pro-form of Caspase-12 that when cleaved, has been associated with ER-mediated apoptosis or cell death. Reducing CHOP with salubrinal also may result in reduction of sustained oxidative stress and neuro-inflammation. LICOR western blot protocols, IHC world immunohistochemistry protocols, and Applied Biosystems PCR protocols were used for the assays. ANOVA was used for analysis with p<0.05 being statistically significant. *=p<0.05, **=p<0.01, ***=p<0.001. When the drug group was compared to the injury group #=p<0.05, ##=p<0.01, ###=p<0.001.

Sprague Dawley rat [1] = assay: Morris water maze after blast injury (cognitive performance); format: in vivo
Procedure: (§1) The administration of salubrinal prior to bTBI was also evaluated in an animal model. Use of the salubrinal ameliorated neuropsychiatric deficits in the form of impulsive-like behavior as measured by the elevated plus maze test/protocol, and spatial memory as measured by the Morris water maze test/protocol. This example assessed the successful targeting of ER stress after TBI. […] A Sprague Dawley rat was positioned in a protective tube to prevent injury to the peripheral organs, and an acceleration wave was generated and allowed to collide with the skull of the rat. The intensity of the injury was adjusted in a step-wise manner by decreasing or increasing the thickness of the membrane that exploded with pressurized nitrogen gas. An injury paradigm of 50 PSI was selected, which correlates with human concussion, that is the most common type of injury linked to CTE. In FIG. 4, the peak in plot D illustrates the 50 PSI pressure wave. The Sprague Dawley rats were given either one injury, or six injuries over a two-week period. Various time points of sacrifice were chosen to look at markers of ER stress and tauopathy. In this example, the effect of targeting (turning off) ER stress on improved behavior was studied by utilizing the injury models and standard protocols for Morris water maze and elevated plus maze. The Morris water maze detected deficits in cognitive performance whereas the elevated plus maze evaluated impulsive-like behavior. […] ANOVA was used for statistical analysis with *=p<0.05, **=p<0.01, ***=p<0.001. When drug was compared to injury group #=p<0.05, ##=p<0.01, ###=p<0.001.

neuroinflammation = assay: Neuroinflammation markers after blast injury; format: in vivo, Sprague Dawley rat
From the text: This example assessed the successful targeting of ER stress after TBI. […] A Sprague Dawley rat was positioned in a protective tube to prevent injury to the peripheral organs, and an acceleration wave was generated and allowed to collide with the skull of the rat. The intensity of the injury was adjusted in a step-wise manner by decreasing or increasing the thickness of the membrane that exploded with pressurized nitrogen gas. An injury paradigm of 50 PSI was selected, which correlates with human concussion, that is the most common type of injury linked to CTE. In FIG. 4, the peak in plot D illustrates the 50 PSI pressure wave. The Sprague Dawley rats were given either one injury, or six injuries over a two-week period. Various time points of sacrifice were chosen to look at markers of ER stress and tauopathy. Salubrinal was administered to the rats after injury to target ER stress. Salubrinal was administered by IP injection 30 minutes after injury using a dose of 1 mg/kg. […] Salubrinal-mediated CHOP reduction may be associated with preservation of the pro-form of Caspase-12 that when cleaved, has been associated with ER-mediated apoptosis or cell death. Reducing CHOP with salubrinal also may result in reduction of sustained oxidative stress and neuro-inflammation. LICOR western blot protocols, IHC world immunohistochemistry protocols, and Applied Biosystems PCR protocols were used for the assays. ANOVA was used for analysis with p<0.05 being statistically significant. *=p<0.05, **=p<0.01, ***=p<0.001. When the drug group was compared to the injury group #=p<0.05, ##=p<0.01, ###=p<0.001. […] Measured components included NF kappa B (plot A), inducible nitric oxide synthase (iNOS) (plot B), interleukin 1 beta (IL-1β) (plot C), and tumor necrosis factor alpha (TNFα) (plot D). As shown in plots A, C and D, salubrinal administration (sTBI+SAL) reduced pro-inflammatory markers NFκB, IL-1β and TNFα, respectively.

Sprague Dawley rat [2] = assay: Elevated plus maze after blast injury (impulsive-like behavior); format: in vivo
Procedure: as §1

oxidative stress = assay: Oxidative stress markers after blast injury; format: in vivo, Sprague Dawley rat
From the text: This example assessed the successful targeting of ER stress after TBI. […] A Sprague Dawley rat was positioned in a protective tube to prevent injury to the peripheral organs, and an acceleration wave was generated and allowed to collide with the skull of the rat. The intensity of the injury was adjusted in a step-wise manner by decreasing or increasing the thickness of the membrane that exploded with pressurized nitrogen gas. An injury paradigm of 50 PSI was selected, which correlates with human concussion, that is the most common type of injury linked to CTE. In FIG. 4, the peak in plot D illustrates the 50 PSI pressure wave. The Sprague Dawley rats were given either one injury, or six injuries over a two-week period. Various time points of sacrifice were chosen to look at markers of ER stress and tauopathy. Salubrinal was administered to the rats after injury to target ER stress. Salubrinal was administered by IP injection 30 minutes after injury using a dose of 1 mg/kg. […] Salubrinal-mediated CHOP reduction may be associated with preservation of the pro-form of Caspase-12 that when cleaved, has been associated with ER-mediated apoptosis or cell death. Reducing CHOP with salubrinal also may result in reduction of sustained oxidative stress and neuro-inflammation. LICOR western blot protocols, IHC world immunohistochemistry protocols, and Applied Biosystems PCR protocols were used for the assays. ANOVA was used for analysis with p<0.05 being statistically significant. *=p<0.05, **=p<0.01, ***=p<0.001. When the drug group was compared to the injury group #=p<0.05, ##=p<0.01, ###=p<0.001. […] Measured components included carbonyls (plot A), superoxide (plot B), reactive oxygen species (ROS) (plot C), and NADPH oxidase 4 (NOX4) (plot D). As shown in A, B and […], administration of salubrinal (sTBI+SAL) reduced protein carbonyls, super-oxides, and total oxidative stress production, respectively.

[3] = bTBI animal model, administered following the injury
[4] = post-blast administration (FIG. 6)

## CC/C=C\C/C=C\C/C=C\C/C=C\C/C=C\C/C=C\CCC(=O)O [DHA]
ER stress; three weeks following repetitive injury (FIG. 10 plot A)
  ER stress activator BiP: inhibited
ER stress; three weeks following repetitive injury (FIG. 10 plot B)
  tau kinase GSK3β: inhibited
Sprague Dawley rat [1]; after injury (FIG. 13 panel D)
  cognitive learning, Morris water maze: improved
Sprague Dawley rat [1]; after injury (FIG. 13 panel E)
  retention of a learned event, probe trial: enhanced

## O=C(/C=C/c1ccccc1)NC(NC(=S)Nc1cccc2cccnc12)C(Cl)(Cl)Cl (stereo not drawn) [salubrinal, 3-phenyl-N-[2,2,2-trichloro-1-[[(8-quinolinylamino)thioxomethyl]amino]ethyl]-2-propenamide]
neuroinflammation; 24 hours after injury (FIG. 8 plot A)
  NFκB (pro-inflammatory marker): reduced
neuroinflammation; 24 hours after injury (FIG. 8 plot C)
  IL-1β (pro-inflammatory marker): reduced
neuroinflammation; 24 hours after injury (FIG. 8 plot D)
  TNFα (pro-inflammatory marker): reduced
ER stress; 1 mg/kg IP 30 minutes after injury
  GSK3β activity: reduced
ER stress; 1 mg/kg IP 30 minutes after injury, 24 hours after a single blast injury (FIG. 5 plot C)
  CHOP (marker of ER stress): prevented the surge; also recorded: significantly reduced
ER stress; 1 mg/kg IP 30 minutes after injury, 24 hours after a single blast injury (FIG. 5 plot E)
  GADD34 (marker of ER stress): inhibited; also recorded: significantly reduced
ER stress; [3]
  ER stress: modulated
  markers of neural degeneration and apoptosis: reducing
ER stress; [4]
  CHOP by immunohistochemistry: significantly reduced
  cleaved Caspase 3 (pro-apoptotic marker) by immunohistochemistry: reduced
Sprague Dawley rat [2]; administered after injury, 72 hours after the repeat injury (FIG. 12)
  impulsive-like behavior, time spent in the open arm of the elevated plus maze: reduced
Sprague Dawley rat [2]; administered after injury, seven days after a single injury (FIG. 11)
  impulsive-like behavior, time in the open arm of the elevated plus maze: reduced
Sprague Dawley rat [2]; administered prior to bTBI
  neuropsychiatric deficits: impulsive-like behavior, elevated plus maze: ameliorated
Oxidative stress; 24 hours after injury (FIG. 7 plot A)
  protein carbonyls: reduced
Oxidative stress; 24 hours after injury (FIG. 7 plot B)
  super-oxides: reduced
Oxidative stress; 24 hours after injury (FIG. 7 plot D)
  total oxidative stress production: reduced
Sprague Dawley rat [1]; administered prior to bTBI
  neuropsychiatric deficits: spatial memory, Morris water maze: ameliorated
